Experimental data published in patent US8575157B2, “Cyclic inhibitors of 11beta-hydroxysteroid dehydrogenase 1” (Vitae Pharmaceuticals, Inc., priority 2010, dated 2013).
Values joined by “and” are separate entries in the source; they are usually repeats but may differ in a detail not shown here. Equal entries are not always repeated. Where two headings read alike, the source gives them in different places. Each block holds one compound with its values, some of them ahead of it.

Columns and labels:
11β-HSD1 [1] = target: T1, 11β-HSD1 (Homo sapiens (Human), UniProt P28845)
[2] = target: human recombinant cytochrome P450 2C19 (Homo sapiens (Human), UniProt P33261); test: CYP2C19 inhibition, Biological Test Example 8; format: in vitro ADME; settings: read-out: Biological Test Example 8 CYP2C19, IC50
[3] = fraction unbound in human plasma (equilibrium dialysis), Biological Test Example 5; format: in vitro ADME; settings: for Biological Test Example 5 (%): fraction unbound in human plasma
[4] = target: human recombinant cytochrome P450 3A4 (Homo sapiens (Human), UniProt P08684); test: CYP3A4 inhibition, Biological Test Example 6; format: in vitro ADME
[5] = target: human recombinant cytochrome P450 2C9 (Homo sapiens (Human), UniProt P11712); test: CYP2C9 inhibition ([O-methyl-14C]-Naproxen), Biological Test Example 7; format: in vitro ADME
human CYP2C9 = human CYP2C9 (Homo sapiens (Human), UniProt P11712); test: CYP2C9 inhibition (Invitrogen kit, OOMR fluorogenic substrate), Biological Test Example 9; format: in vitro ADME; settings: read-out: Biological Test Example 9 CYP2C9 IC50
11β-HSD1 [6] = target: T1, 11β-HSD1; format: biochemical; settings: human liver microsomes, 100% indicates no inhibition, zero or below zero indicates complete inhibition
[7] = slurry experiment on stability of the crystal form (XRPD); settings: 30 minutes
[8] = human recombinant CYP2C19, [N-methyl-14C]-Diazepam

Chain of human recombinant cytochrome P450 2C9 (P11712 whole entry): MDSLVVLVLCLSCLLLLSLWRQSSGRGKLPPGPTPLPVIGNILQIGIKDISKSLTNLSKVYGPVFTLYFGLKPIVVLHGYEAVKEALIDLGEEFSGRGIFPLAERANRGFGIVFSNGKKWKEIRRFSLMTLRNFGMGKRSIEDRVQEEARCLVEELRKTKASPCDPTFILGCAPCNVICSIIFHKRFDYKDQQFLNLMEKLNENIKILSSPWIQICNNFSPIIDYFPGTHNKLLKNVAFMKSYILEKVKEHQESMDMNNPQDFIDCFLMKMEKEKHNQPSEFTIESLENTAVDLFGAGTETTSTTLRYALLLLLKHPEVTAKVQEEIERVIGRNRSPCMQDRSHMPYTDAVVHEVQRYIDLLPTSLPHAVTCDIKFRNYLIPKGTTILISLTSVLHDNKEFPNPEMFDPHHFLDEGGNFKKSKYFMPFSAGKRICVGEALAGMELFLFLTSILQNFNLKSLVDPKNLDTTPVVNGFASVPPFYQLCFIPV
T1 sequence (P28845 whole entry): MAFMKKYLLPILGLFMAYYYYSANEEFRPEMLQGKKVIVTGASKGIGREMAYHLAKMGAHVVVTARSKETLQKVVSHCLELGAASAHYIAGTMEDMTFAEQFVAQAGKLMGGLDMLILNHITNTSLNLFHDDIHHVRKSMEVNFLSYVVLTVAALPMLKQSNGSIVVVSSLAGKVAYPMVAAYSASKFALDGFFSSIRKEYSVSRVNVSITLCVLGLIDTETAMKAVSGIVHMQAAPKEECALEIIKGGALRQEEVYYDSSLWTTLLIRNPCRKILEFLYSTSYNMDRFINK
Chain of human recombinant cytochrome P450 3A4 (P08684 whole entry): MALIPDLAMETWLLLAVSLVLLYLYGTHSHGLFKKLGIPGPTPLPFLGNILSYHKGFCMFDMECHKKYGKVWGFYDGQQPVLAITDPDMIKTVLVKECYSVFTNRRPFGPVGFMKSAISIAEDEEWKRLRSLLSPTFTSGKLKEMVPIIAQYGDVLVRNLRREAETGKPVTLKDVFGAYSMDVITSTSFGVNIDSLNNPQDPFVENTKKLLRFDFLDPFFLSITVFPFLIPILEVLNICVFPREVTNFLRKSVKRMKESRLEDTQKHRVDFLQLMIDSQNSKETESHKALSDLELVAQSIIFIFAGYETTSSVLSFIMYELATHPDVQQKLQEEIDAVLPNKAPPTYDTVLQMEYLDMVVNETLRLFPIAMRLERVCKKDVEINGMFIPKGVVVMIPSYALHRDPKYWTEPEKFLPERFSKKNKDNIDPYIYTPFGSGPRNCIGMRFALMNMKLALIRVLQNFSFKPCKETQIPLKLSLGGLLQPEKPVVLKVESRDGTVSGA
Chain of human recombinant cytochrome P450 2C19 (P33261 whole entry): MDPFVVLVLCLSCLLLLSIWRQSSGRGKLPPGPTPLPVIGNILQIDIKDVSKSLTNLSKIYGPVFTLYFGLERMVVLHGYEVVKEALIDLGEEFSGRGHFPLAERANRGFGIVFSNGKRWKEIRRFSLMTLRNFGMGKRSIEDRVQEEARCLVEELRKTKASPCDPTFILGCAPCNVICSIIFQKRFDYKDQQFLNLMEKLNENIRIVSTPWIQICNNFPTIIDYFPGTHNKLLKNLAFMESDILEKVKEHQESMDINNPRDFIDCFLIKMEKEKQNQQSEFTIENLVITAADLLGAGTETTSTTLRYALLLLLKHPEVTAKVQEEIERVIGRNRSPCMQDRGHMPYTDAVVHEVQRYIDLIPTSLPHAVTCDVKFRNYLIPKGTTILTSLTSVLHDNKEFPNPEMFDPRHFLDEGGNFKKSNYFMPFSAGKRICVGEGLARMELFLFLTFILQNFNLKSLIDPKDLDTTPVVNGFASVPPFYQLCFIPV
Chain of human CYP2C9 (P11712 whole entry): as the sequence (P11712 whole entry) above

Structure (SMILES): C[C@@H](c1ccc(-c2ccn(C3CC3)c(=O)c2)cc1)N1CCC(CC(C)(C)O)(C2CCOCC2)OC1=O (single isomer, unassigned) [Example 91 Isomer 2]
Average % inhibition at 100 nM (11β-HSD1 [1]; Biological Test Example 1): 13.8%

Structure (SMILES): C[C@@H](c1ccc(-c2ccn(C3CC3)c(=O)c2)cc1)N1CCC(CC(C)(C)C)(CC(C)(C)O)OC1=O (single isomer, unassigned) [Example 94 Isomer 1]
Average % inhibition at 100 nM (11β-HSD1 [1]; Biological Test Example 1, listed as EXAMPLE 94 Isomer 1): 41.9%

Structure (SMILES): C[C@@H](c1ccc(-c2ccn(C3CC3)c(=O)c2)cc1)N1CCC(CC(C)(C)C)(CC(C)(C)O)OC1=O (single isomer, unassigned) [Example 94 Isomer 2]
Average % inhibition at 100 nM (11β-HSD1 [1]; Biological Test Example 1, listed as EXAMPLE 94 Isomer 2): 8.2%

Structure (SMILES): C[C@@H](c1ccc(-c2ccn(C3CC3)c(=O)c2)cc1)N1CCC(CC(C)(C)O)(C2CC(F)(F)C2)OC1=O (single isomer, unassigned) [Example 95 Isomer 2]
Average % inhibition at 100 nM (11β-HSD1 [1]; Biological Test Example 1): 8.0%

IC50 [2, 8]: […] | Biological Test Example 5 (fraction unbound in human plasma) [3]: 0.7% | IC50 ([4]; human recombinant CYP3A4): 14.1 µM
Structure (SMILES): C[C@@H](c1ccc(-c2ccc(=O)n(C)c2)cc1)N1CC[C@](CC(C)(C)NS(C)(=O)=O)(c2ccccc2)OC1=O [Example 11, N-(2-methyl-1-((S)-3-((S)-1-(4-(1-methyl-6-oxo-1,6-dihydropyridin-3-yl)phenyl)ethyl)-2-oxo-6-phenyl-1,3-oxazinan-6-yl)propan-2-yl)methanesulfonamide]

IC50 ([5]; human recombinant CYP2C9): […] | IC50 [2, 8]: […] | Biological Test Example 5 (fraction unbound in human plasma) [3]: 0.4% | IC50 (human CYP2C9; Invitrogen kit, OOMR fluorogenic substrate): 2.5 µM | IC50 ([4]; human recombinant CYP3A4): 4.9 µM
Structure (SMILES): C[C@@H](c1ccc(-c2ccc(=O)n(C)c2)cc1)N1CC[C@](CC(C)(C)N(C)S(C)(=O)=O)(c2ccccc2)OC1=O [Example 12, N-methyl-N-(2-methyl-1-((S)-3-((S)-1-(4-(1-methyl-6-oxo-1,6-dihydropyridin-3-yl)phenyl)ethyl)-2-oxo-6-phenyl-1,3-oxazinan-6-yl)propan-2-yl)methanesulfonamide]

IC50 [5]: > 50 µM | IC50 [2]: > 50 µM | Biological Test Example 5 (%) [3]: 8.7% | IC50 (human CYP2C9): 30 µM | IC50 [4]: > 50 µM
Structure (SMILES): C[C@@H](c1ccc(-c2ccn(C)c(=O)c2)cc1)N1CC[C@](CC(C)(C)O)(c2ccccc2)OC1=O [Example 48, (S)-6-(2-hydroxy-2-methylpropyl)-3-((S)-1-(4-(1-methyl-2-oxo-1,2-dihydropyridin-4-yl)phenyl)ethyl)-6-phenyl-1,3-oxazinan-2-one]

Biological Test Example 5 (%) [3]: 9.0%
Structure (SMILES): CC[C@@H](c1ccc(-c2ccc(=O)n(CC)c2)cc1)N1CC[C@](CC(C)(C)O)(c2ccccc2)OC1=O [Example 52, (S)-3-((S)-1-(4-(1-ethyl-6-oxo-1,6-dihydropyridin-3-yl)phenyl)propyl)-6-(2-hydroxy-2-methylpropyl)-6-phenyl-1,3-oxazinan-2-one]

IC50 [5]: > 50 µM | Biological Test Example 5 (%) [3]: 9.1% | IC50 [4]: > 50 µM
Structure (SMILES): CC[C@@H](c1ccc(-c2ccc(=O)n(C)c2)cc1)N1CC[C@](CC(C)(C)O)(c2ccccc2)OC1=O [Example 54, (S)-6-(2-hydroxy-2-methylpropyl)-3-((S)-1-(4-(1-methyl-6-oxo-1,6-dihydropyridin-3-yl)phenyl)propyl)-6-phenyl-1,3-oxazinan-2-one]

Biological Test Example 5 (%) [3]: 7.1%
Structure (SMILES): CC[C@@H](c1ccc(-c2ccn(C)c(=O)c2)cc1)N1CC[C@](CC(C)(C)O)(c2ccccc2)OC1=O [Example 55, (S)-6-(2-hydroxy-2-methylpropyl)-3-((S)-1-(4-(1-methyl-2-oxo-1,2-dihydropyridin-4-yl)phenyl)propyl)-6-phenyl-1,3-oxazinan-2-one]

Biological Test Example 5 (%) [3]: 5.5%
Structure (SMILES): C[C@@H](c1ccc(-c2ccn(CC(F)(F)F)c(=O)c2)cc1)N1CC[C@](CC(C)(C)O)(c2ccccc2)OC1=O [Example 66, (S)-6-(2-hydroxy-2-methylpropyl)-3-((S)-1-(4-(2-oxo-1-(2,2,2-trifluoroethyl)-1,2-dihydropyridin-4-yl)phenyl)ethyl)-6-phenyl-1,3-oxazinan-2-one]

Structure (SMILES): C[C@@H](c1ccc(-c2cc(=O)n(C)cc2F)cc1)N1CC[C@](CC(C)(C)O)(c2ccccc2)OC1=O [Example 79, 3-{(S)-1-[4-(5-Fluoro-1-methyl-2-oxo-1,2-dihydro-pyridin-4-yl)-phenyl]-ethyl}-(S)-6-(2-hydroxy-2-methyl-propyl)-6-phenyl-[1,3]oxazinan-2-one]
IC50 [5]: > 50 µM | IC50 [2]: > 50 µM | IC50 [4]: > 50 µM | Average % control inhibition at 100 nM (11β-HSD1 [6]): 15 % control

Structure (SMILES): C[C@@H](c1ccc(-c2ccn(CC(C)(C)O)c(=O)c2)cc1)N1CC[C@](CC(C)(C)O)(c2ccccc2)OC1=O [Example 80, (S)-6-(2-Hydroxy-2-methyl-propyl)-3-((S)-1-{4-[1-(2-hydroxy-2-methyl-propyl)-2-oxo-1,2-dihydro-pyridin-4-yl]-phenyl}-ethyl)-6-phenyl-[1,3]oxazinan-2-one]
IC50 [5]: > 50 µM | IC50 [4]: > 50 µM | Average % control inhibition at 100 nM (11β-HSD1 [6]): 37 % control

Structure (SMILES): COCC(C)Cn1ccc(-c2ccc([C@H](C)N3CC[C@](CC(C)(C)O)(c4ccccc4)OC3=O)cc2)cc1=O (stereo partly drawn) [Example 81, (S)-6-(2-Hydroxy-2-methyl-propyl)-3-((S)-1-{4-[1-(3-methoxy-2-methyl-propyl)-2-oxo-1,2-dihydro-pyridin-4-yl]-phenyl}-ethyl)-6-phenyl-[1,3]oxazinan-2-one]
Average % control inhibition at 100 nM (11β-HSD1 [6]): 11 % control

Structure (SMILES): CC(CO)Cn1ccc(-c2ccc([C@H](C)N3CC[C@](CC(C)(C)O)(c4ccccc4)OC3=O)cc2)cc1=O (stereo partly drawn) [Example 82, (S)-6-(2-Hydroxy-2-methyl-propyl)-3-((S)-1-{4-[1-(3-hydroxy-2-methyl-propyl)-2-oxo-1,2-dihydro-pyridin-4-yl]-phenyl}-ethyl)-6-phenyl-[1,3]oxazinan-2-one]
Average % control inhibition at 100 nM (11β-HSD1 [6]): −12 % control

Structure (SMILES): COC(C)(C)Cn1ccc(-c2ccc([C@H](C)N3CC[C@](CC(C)(C)O)(c4ccccc4)OC3=O)cc2)cc1=O [Example 83, (S)-6-(2-Hydroxy-2-methyl-propyl)-3-(1-{4-[1-(2-methoxy-2-methyl-propyl)-2-oxo-1,2-dihydro-pyridin-4-yl]-phenyl}-ethyl)-6-phenyl-[1,3]oxazinan-2-one]
Average % control inhibition at 100 nM (11β-HSD1 [6]): 54 % control

Structure (SMILES): C[C@@H](c1ccc(-c2ccn(CC(C)(C)CO)c(=O)c2)cc1)N1CC[C@](CC(C)(C)O)(c2ccccc2)OC1=O [Example 90, 3-((S)-1-{4-[1-(3-Hydroxy-2,2-dimethyl-propyl)-2-oxo-1,2-dihydro-pyridin-4-yl]-phenyl}-ethyl)-(S)-6-(2-hydroxy-2-methyl-propyl)-6-phenyl-[1,3]oxazinan-2-one]
Average % control inhibition at 100 nM (11β-HSD1 [6]): 4 % control

remaining in the anhydrous state during the measurement by XRPD [7]: did not remain in the anhydrous state
Structure (SMILES): C[C@@H](c1ccc(-c2ccn(C)c(=O)c2)cc1)N1CC[C@](CC(C)(C)O)(c2ccccc2)OC1=O [anhydrous form of Example 48, (S)-6-(2-hydroxy-2-methylpropyl)-3-((S)-1-(4-(1-methyl-2-oxo-1,2-dihydropyridin-4-yl)phenyl)ethyl)-6-phenyl-1,3-oxazinan-2-one]

remaining in the anhydrous state during the measurement by XRPD [7]: did not remain in the anhydrous state
Structure (SMILES): C[C@@H](c1ccc(-c2ccn(C3CC3)c(=O)c2)cc1)N1CC[C@](CC(C)(C)O)(c2ccccc2)OC1=O [anhydrous form of Example 75, 3-{(S)-1-[4-(1-Cyclopropyl-2-oxo-1,2-dihydro-pyridin-4-yl)-phenyl]-ethyl}-(S)-6-(2-hydroxy-2-methyl-propyl)-6-phenyl-[1,3]oxazinan-2-one]
